Experiments:
[1] = test system: DB and OCI-LY3 DLBCL derived cell-line; assay: phospho-RPA2 T21 foci immunofluorescence; assay type: cell-based, human; settings: 50 nM, 24H
Procedure: DB and OCI-LY3 DLBCL derived cell-line was treated with 50 nM Ironomycin during 24H. Immunofluoresence staining for foci of phospho-RPA2 T21, S phase (EdU integration) and DAPI was performed in DLBCL cells. (Magnification x63). Scale bar: 10 μm.
At least 300 cells were counted for each group. Statistical difference was tested using a Fisher's exact test. * P<0.05, ** P<0.01, *** P<0.001, **** P<0.0001. NS: non-significant.

DLBCL cells = assay: Autophagy, LC3B II puncta; assay type: cell-based, human; settings: 100 nM, 24H, P<0.0001
DB and OCI-LY3 cells = assay: DNA fiber assay (replication fork progression); assay type: cell-based, human
Procedure: DB and OCI-LY3 cells were labeled with IdU, treated with vehicle, gemcitabine (10 μM) or Ironomycin (100 μM) and labeled with CIdU (30 minutes each), and then harvested for DNA fiber assay (A and B).
DB cells were pretreated or not by deoxynucleotides for 30 minutes, labeled with IdU, treated with vehicle, gemcitabine (10 μM) or Ironomycin (100 μM) and labeled with CIdU (30 minutes each), and then harvested for DNA fiber assay (C and D).
Boxplot represent median±interquartile ranges and dots represent outliers of track length (expressed in μm). Results represent at least 200 track measurements. * P<0.05, **** P<0.0001, NS: non-significant, Mann-Whitney test.
Eukaryotic cells contain numerous iron-requiring proteins such as iron-sulfur (Fe—S) cluster proteins, hemoproteins and ribonucleotide reductases that play key roles in DNA replication and require iron as a cofactor (Zhang, 2014). The inventors next monitored the effect of ironomycin on fork progression in DLBCL cells using DNA fiber analysis. To this end, DLBCL cell lines were pulse labeled with 10 μM IdU and 100 μM CIdU and the length of CIdU tracks was measured to estimate the distance covered by individual forks during the pulse. […] Gemcitabine was used as a positive control. […]

[2] = test system: DLBCL-derived cell lines (U2932, DB and OCI-LY3); assay: Concentration matrix test, synergy matrix (Bliss equation); assay type: cell-based, human; settings: DB cell line, 96 h, combined with Doxorubicin
Procedure: (§1) The DB DLBCL-derived cell lines were treated with increasing concentrations of Ironomycin combined with Doxorubicin for 96 h and cell viability was tested by ATP quantification to obtain the viability matrix. The synergy matrix was calculated as described in Material and Methods (A).
as §1, with “Three” for “The DB”, “Venetoclax” for “Doxorubicin”, “Methods. FIG. 8A: U2932 cell line; FIG. 8B: DB cell line; FIG. 8C: OCI-LY3 cell line.” for “Methods (A).”
Two DLBCL-derived cell lines were treated with increasing concentrations of Ironomycin combined with Ibrutinib for 96 h and cell viability was tested by ATP quantification to obtain the viability matrix. The synergy matrix was calculated as described in Material and Methods. […]
Two DLBCL-derived cell lines were treated with increasing concentrations of Ironomycin combined with Venetoclax for 96 h and cell viability was tested by ATP quantification to obtain the viability matrix. The synergy matrix was calculated as described in Material and Methods. […]
Three DLBCL-derived cell lines were treated with increasing concentrations of Ironomycin combined with Venetoclax for 96 h and cell viability was tested by ATP quantification to obtain the viability matrix. […]

CD34+ cells = assay: Hematopoietic progenitor colony forming units (CFU) assay; settings: 14 days
Procedure: Hematopoietic progenitor colony-forming units assay were performed with CD34+ cells from apheresis of 5 donors. […] CFU-C, CFU-E and CFU-GM were counted after 14 days culture (C).
Mobilized peripheral blood of donor were collected using an apheresis machine. Cells were CD34+ enriched by immuno-magnetic cell separation and fluorescence activated cell sorting (FACS).
About 250 viable CD34+ cells/mL were cultured in Methocult GF H84434 Medium (Stem Cell, #84434). Using a 3 mL syringe attached to a 16 gauge blunt end needle, 1 mL of the mixture was dispensed into 2 35 mm dishes.
Dishes were incubated at 37° C., in 5% C02, with >95% humidity for 14 days.

[3] = test system: OCI-LY3 and DB DLBCL cells; assay: ROS production, CM-H2DCFDA staining; assay type: cell-based, human

C#CCN[C@@H]1C=C[C@]2(O[C@H]([C@@H](CC)C(=O)[C@@H](C)[C@@H](O)[C@H](C)[C@@H]3O[C@@H]([C@@H](CC)C(=O)O)CC[C@@H]3C)[C@@H](C)C[C@H]2C)O[C@@]12CC[C@@](C)([C@H]1CC[C@](O)(CC)[C@H](C)O1)O2 [Ironomycin]
phosphorylation of RPA2 on threonine 21 (replication stress) [1]: increased phosphorylation of replication protein A sub-unit 2 (RPA2) on threonine 21
LC3B II puncta (autophagy) (DLBCL cells): clear increase in LC3B II puncta
effect of deoxynucleotide supplementation on replication fork delay (DB and OCI-LY3 cells; DB cells pretreated by deoxynucleotides for 30 minutes): partially reversed
length of CIdU tracks compared to control cells (DB and OCI-LY3 cells; P<0.0001): significantly shorter
potentiation of doxorubicin toxicity (synergy matrix) [2]: significantly potentialized the toxicity of doxorubicin
toxicity on CFU-C, CFU-E and CFU-GM formation (CD34+ cells; 10 nM, N=5): no significant toxicity
hematopoietic toxicity compared to conventional chemotherapy (CD34+ cells; 50 and 100 nM): significant lower hematopoietic toxicity
inhibition of induced ROS production by ferrostatin and GSH [3]: partially inhibited by ferrostin but not by gluthation (GSH)
ROS production ([3]; CM-H2DCFDA staining): induces ROS production
